The test deals with Mycobacterium tuberculosis. As to the kind of experiment: Antimycobacterial activity against Mycobacterium tuberculosis InhA S94A assessed as reduction in bacterial growth. It is filed as functional.

Structures are written as SMILES. In brackets after ≈: the same amount, converted by molar mass.

What is called MIC is the lowest concentration found to suppress growth. For `CC/C(C)=C1\OC(=O)[C@H](C)[C@H](O)[C@H](Cc2cccnc2)NC(=O)[C@@H](NC(=O)c2ncccc2O)[C@@H](C)OC1=O` [PYRIDOMYCIN], the MIC came out at 0.3 µg/mL (≈ 0.555 µM).

For the compound `Oc1cc2ccc1Oc1ccc(cc1)CCc1ccc(c(O)c1)Oc1ccc(cc1)CC2`, the MIC was 40 µg/mL (≈ 94.2 µM).

The values above are taken from ChEMBL document CHEMBL5230110, “FabI (enoyl acyl carrier protein reductase) - A potential broad spectrum therapeutic target and its inhibitors” (Eur J Med Chem, 2020).
